The text below walks through data of US6180624A (priority 1994, dated 2001).

Assay [1] deals with morphine-induced emesis. The note with it: ferrets; cited from earlier work.
Assay [2] concerns nociceptive spinal reflexes. Nature of the assay: animal or person. Format: in vivo, rabbit (male New Zealand white). The note with it: for ED50: Oryctolagus cuniculus, iv; for Effect on baseline, facilitation and wind-up responses: all three measures, FIG. 1, 2, 4. How it is done: Male New Zealand white rabbits (2.5-3.5 kg) were anaesthetised by an injection of 0.9% alphaxalone and 0.3% alphadolone (Saffan) directly into an ear vein. A cervical spinalization was performed and the cerebral cortex removed (decerebration) allowing anaesthesia to be discontinued. The left hind limb was shaved and a bipolar recording electrode inserted into the biceps femoris/semitendinous muscle. A noxious stimulus was applied to the area of the receptive field of the motor units to the skin of the foot. Single shocks (1 ms square pulses; 2 times threshold) were applied at a rate of 1 per minute. The conditioning stimulus was 20 of these impulses at a rate of 1 Hz, producing wind-up. The baseline parameters were again applied 20 seconds following the conditioning stimulus, the first of these stimuli is termed the facilitation of the baseline response. Injections were administered at 15 minute intervals, the first two always being the relevant drug vehicle. The time-course of events throughout the experiment was as shown below:
t=0 mins: Dose with vehicle (i.v.).
t=40 sec: Begin baseline stimulation (1 per minute).
t=10 mins: Conditioning stimulus applied (20 @ 1 Hz; wind-up).
t=10 mins 40 secs: Baseline stimulation resumes (Initial baseline response equates to facilitation).
t=15 mins: Dose with vehicle (i.v.).
t=25 mins: Conditioning stimulus applied.
t=25 mins 40 secs: Baseline stimulation resumes.
t=30 mins: Dose with test compound (i.v.).
t=40 mins: Conditioning stimulus applied.
t=40 mins 40 secs: Baseline stimulation resumes.
t=45 mins and every 15 minutes thereafter: Drug treatment (i.v.).
t=55 mins and every 15 minutes thereafter: Conditioning stimulus applied.
40 seconds after each conditioning stimulus baseline stimulation is resumed.
In each experiment the values obtained to the second vehicle were used as the control response. Each of the values obtained with drug treatment was expressed as a percentage of the control response. In the case of changes in baseline the last four values obtained prior to the conditioning response were taken to represent baseline activity. The effect of drug treatment was determined by comparing the baseline post-drug to the control baseline. Four rabbits were used in each experiment unless otherwise stated.

For assay [3], the system named is phenylbenzoquinone-induced writhing. Conditions: Garret et al.; cited from earlier work.
Assay [4] has as its system formalin test. Conditions: Garret et al.; cited from earlier work.
The mark [5] stands for this setting: baseline, i.v., decerebrate, spinalized rabbit, read-out: Approximate ID50, inhibition of baseline firing rate.
The mark [6] stands for this setting: facilitation, i.v., decerebrate, spinalized rabbit, read-out: Approximate ID50, inhibition of facilitation.
Setting [7] is: wind-up, i.v., decerebrate, spinalized rabbit, read-out: Approximate ID50, inhibition of wind-up.

“Also recorded” adds a separate entry of the source. Read-outs that look alike come from different tables or passages of the source. Some results are limits rather than exact numbers.

As for `COc1ccccc1CN[C@H]1CCCN[C@H]1c1ccccc1` [CP-99,994], the “Emetic response to morphine” value in assay [1] is “attenuate the emetic response to morphine”. The “Facilitation of nociceptive spinal reflexes” value in assay [2] (CP-99,994 1-100 μg/kg i.v.) is given as “reduce facilitation of nociceptive spinal reflexes”. Further, the values for the ED50 in assay [2] (setting [5]), in assay [2] (setting [6]) and in assay [2] (setting [7]) were 0.05 mg/kg, 0.008 mg/kg and 0.01 mg/kg, respectively. In addition, in assay [2] (i.v.), the “Effect on baseline, facilitation and wind-up responses” value was “dose-dependent reduction in all three measures”. For the same compound, the “Antagonism of the anti-nociceptive effects of morphine by CP-99,994” value in assay [2] (rabbit, in vivo) is “not antagonised”. The “Effect of CP-99,994 and morphine given together on the nociceptive reflex” value in assay [2] (rabbit, in vivo) is reported as “appeared to be additive to those of morphine”.

`COc1ccccc1CN[C@@H]1CCCN[C@@H]1c1ccccc1` [CP-100,263]: the ED50 in assay [2] (setting [5]), in assay [2] (setting [6]) and in assay [2] (setting [7]) was above 1 mg/kg each time. Besides, the “Effect on baseline, facilitation and wind-up responses” value in assay [2] (i.v.) was “did not inhibit baseline, facilitation or wind-up responses; also recorded: lack of effect”.

As for `CN1CC[C@]23c4c5ccc(O)c4O[C@H]2[C@@H](O)C=C[C@H]3[C@H]1C5` [Morphine, morphine], in assay [2] (baseline, i.v., decerebrate, spinalized rabbit), the “Approximate ID50, inhibition of baseline firing rate” value was 500 µg/kg. Also, the “Approximate ID50, inhibition of facilitation” value in assay [2] (facilitation, i.v., decerebrate, spinalized rabbit) came out at 500 µg/kg. Besides, in assay [2] (morphine 0.5 mg/kg i.v. prior to CP-99,994 dose response curve, FIG. 3), the “Effect of morphine pre-treatment on CP-99,994 induced inhibition of each measure” value is “failed to attenuate the CP-99,994 induced inhibition of each measure”. The “Approximate ID50, inhibition of wind-up” value in assay [2] (wind-up, i.v., decerebrate, spinalized rabbit) was determined as 500 µg/kg.

Consider `COc1ccccc1CC(=N)N1C[C@@H]2C(=O)CCC(c3ccccc3)(c3ccccc3)[C@@H]2C1` [RP 67,580], for which the “Analgesia potency relative to morphine, phenylbenzoquinone-induced writhing” value in assay [3] is “potency comparable to that of morphine”. Further, the “Analgesia potency relative to morphine, formalin test” value in assay [4] is “potency comparable to that of morphine”.
